Data: US9062124B2, “GIP-based mixed agonists for treatment of metabolic disorders and obesity” (priority 2008, dated 2015)
Where a SMILES comes first, the peptide text is derived from it. Bridges are numbered along the chain shown (N, C = ends). [ ]: non-standard residue; d: D form. Aib = CC(C)(N)C(=O)O

Assays:
Assay type in all cases: cell-based
[1] = tested on: glucagon receptor, GLP-1 receptor or GIP receptor; assay: Agonist profile across receptors assigned from the cAMP reporter assay data; conditions: assigned from the in vitro EC50 data of Tables 1-4
[2] = target: T1, GIP receptor (Homo sapiens, UniProt P48546); assay: cAMP synthesis functional assay (firefly luciferase reporter in HEK293 cells), GIP receptor; conditions: Table 1; relative to the native hormone of the indicated receptor
T1 construct: expressed in transfected cells; host or cells: HEK293
T1 sequence (P48546 22-466): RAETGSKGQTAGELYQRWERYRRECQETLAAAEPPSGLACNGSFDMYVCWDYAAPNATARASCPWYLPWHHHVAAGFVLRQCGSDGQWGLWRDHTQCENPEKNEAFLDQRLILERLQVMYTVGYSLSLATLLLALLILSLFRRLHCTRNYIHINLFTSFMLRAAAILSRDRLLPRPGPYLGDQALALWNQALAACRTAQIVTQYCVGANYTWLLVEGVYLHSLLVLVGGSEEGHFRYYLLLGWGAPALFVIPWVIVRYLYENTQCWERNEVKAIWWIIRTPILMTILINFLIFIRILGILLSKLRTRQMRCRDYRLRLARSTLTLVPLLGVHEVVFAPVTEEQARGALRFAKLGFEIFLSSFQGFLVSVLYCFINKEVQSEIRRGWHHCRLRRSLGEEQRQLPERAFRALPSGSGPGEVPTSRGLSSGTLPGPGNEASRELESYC

[3] = target: T2, glucagon receptor (Homo sapiens, UniProt P47871); assay: cAMP synthesis functional assay (firefly luciferase reporter in HEK293 cells), glucagon receptor; conditions: Table 1; relative to the native hormone of the indicated receptor
T2 construct: expressed in transfected cells; host or cells: HEK293

[4] = target: T3, GLP-1 receptor (Homo sapiens, UniProt P43220); assay: cAMP synthesis functional assay (firefly luciferase reporter in HEK293 cells), GLP-1 receptor; conditions: Table 1; for GLP-1 Receptor relative activity: relative to the native hormone of the indicated receptor; for EC50: GLP-1 Receptor EC50, nM
T3 construct: expressed in transfected cells; host or cells: HEK293
T3 sequence (P43220 24-463, species assumed): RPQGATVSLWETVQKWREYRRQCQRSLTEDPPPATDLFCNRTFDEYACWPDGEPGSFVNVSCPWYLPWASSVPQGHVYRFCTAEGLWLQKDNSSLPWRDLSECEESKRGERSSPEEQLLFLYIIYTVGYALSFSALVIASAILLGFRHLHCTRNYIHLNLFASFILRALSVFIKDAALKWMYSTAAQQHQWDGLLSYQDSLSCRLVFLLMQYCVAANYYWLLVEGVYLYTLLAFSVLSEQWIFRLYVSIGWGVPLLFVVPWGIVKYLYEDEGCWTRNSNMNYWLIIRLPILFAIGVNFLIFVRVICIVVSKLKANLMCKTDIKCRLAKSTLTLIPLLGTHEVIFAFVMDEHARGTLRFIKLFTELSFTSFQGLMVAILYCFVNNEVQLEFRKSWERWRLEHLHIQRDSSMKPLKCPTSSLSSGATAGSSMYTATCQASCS

T2 sequence (P47871 26-477): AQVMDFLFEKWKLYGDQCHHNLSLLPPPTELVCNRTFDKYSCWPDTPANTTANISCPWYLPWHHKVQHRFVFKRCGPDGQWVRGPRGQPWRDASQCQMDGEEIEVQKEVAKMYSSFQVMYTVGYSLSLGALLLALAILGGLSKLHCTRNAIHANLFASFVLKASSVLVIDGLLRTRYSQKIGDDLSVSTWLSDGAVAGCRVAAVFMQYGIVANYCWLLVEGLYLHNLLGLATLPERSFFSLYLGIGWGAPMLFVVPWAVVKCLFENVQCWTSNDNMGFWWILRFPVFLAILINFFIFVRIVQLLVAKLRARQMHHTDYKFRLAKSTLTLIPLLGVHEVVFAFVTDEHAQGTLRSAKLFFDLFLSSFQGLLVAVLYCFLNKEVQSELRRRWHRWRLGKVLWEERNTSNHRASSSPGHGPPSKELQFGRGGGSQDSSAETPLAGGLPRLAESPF

Structure (SMILES)	receptor activity profile (glucagon / GLP-1 / GIP agonism) [1]	GIP Receptor relative activity [2] [%]	Glucagon Receptor relative activity [3] [%]	GLP-1 Receptor relative activity [4] [%]	EC50 [4] [nM]
CC[C@H](C)[C@H](NC(=O)[C@H](Cc1ccccc1)NC(=O)[C@H](CCC(=O)O)NC(=O)[C@@H]1CCCCNC(=O)CC[C@H](NC(=O)[C@H](CC(=O)O)NC(=O)[C@H](CC(C)C)NC(=O)[C@H](Cc2ccc(O)cc2)NC(=O)[C@@H](NC(=O)[C@H](CO)NC(=O)[C@H](Cc2ccc(O)cc2)NC(=O)[C@H](CC(=O)O)NC(=O)[C@H](CO)NC(=O)[C@@H](NC(=O)[C@H](Cc2ccccc2)NC(=O)[C@@H](NC(=O)CNC(=O)[C@H](CCC(N)=O)NC(=O)[C@H](CO)NC(=O)[C@@H](N)Cc2ccc(O)cc2)[C@@H](C)O)[C@@H](C)O)[C@@H](C)CC)C(=O)N[C@@H](CCC(N)=O)C(=O)N[C@@H](C)C(=O)N[C@@H](C)C(=O)N1)C(=O)N[C@@H](C)C(=O)N[C@@H](Cc1c[nH]c2ccccc12)C(=O)N[C@@H](CC(C)C)C(=O)N[C@@H](CC(C)C)C(=O)N[C@@H](C)C(=O)NCC(=O)NCC(=O)N1CCC[C@H]1C(=O)N[C@@H](CO)C(=O)N[C@@H](CO)C(=O)NCC(=O)N[C@@H](C)C(=O)N1CCC[C@H]1C(=O)N1CCC[C@H]1C(=O)N1CCC[C@H]1C(=O)N[C@@H](CO)C(N)=O [mt-147] (H-YSQGTFTSDYSIYLDEQAAKEFIAWLLAGGPSSGAPPPS-NH2; lactam 16-20; N-terminus assumed)	exemplary GLP-1/GIP/glucagon triagonist peptides	43.06	90.52	33.87	–
CC[C@H](C)[C@H](NC(=O)[C@H](Cc1ccccc1)NC(=O)[C@H](CCC(=O)O)NC(=O)[C@@H]1CCCCNC(=O)CC[C@H](NC(=O)[C@H](CC(=O)O)NC(=O)[C@H](CC(C)C)NC(=O)[C@H](Cc2ccc(O)cc2)NC(=O)[C@@H](NC(=O)[C@H](CO)NC(=O)[C@H](Cc2ccc(O)cc2)NC(=O)[C@H](CC(=O)O)NC(=O)[C@H](CO)NC(=O)[C@@H](NC(=O)[C@H](Cc2ccccc2)NC(=O)[C@@H](NC(=O)CNC(=O)[C@H](CCC(=O)O)NC(=O)[C@H](CO)NC(=O)[C@@H](N)Cc2ccc(O)cc2)[C@@H](C)O)[C@@H](C)O)[C@@H](C)CC)C(=O)N[C@@H](CCC(N)=O)C(=O)N[C@@H](C)C(=O)N[C@@H](C)C(=O)N1)C(=O)N[C@@H](C)C(=O)N[C@@H](Cc1c[nH]c2ccccc12)C(=O)N[C@@H](CC(C)C)C(=O)N[C@@H](CC(C)C)C(=O)N[C@@H](C)C(=O)NCC(=O)NCC(=O)N1CCC[C@H]1C(=O)N[C@@H](CO)C(=O)N[C@@H](CO)C(=O)NCC(=O)N[C@@H](C)C(=O)N1CCC[C@H]1C(=O)N1CCC[C@H]1C(=O)N1CCC[C@H]1C(=O)N[C@@H](CO)C(N)=O [mt-148] (H-YSEGTFTSDYSIYLDEQAAKEFIAWLLAGGPSSGAPPPS-NH2; lactam 16-20; N-terminus assumed)	exemplary GLP-1/GIP co-agonist peptides	65.26	2.14	36.22	0.098
CC[C@H](C)[C@H](NC(=O)[C@H](CO)NC(=O)[C@H](Cc1ccc(O)cc1)NC(=O)[C@H](CC(=O)O)NC(=O)[C@H](CO)NC(=O)[C@@H](NC(=O)[C@H](Cc1ccccc1)NC(=O)[C@@H](NC(=O)CNC(=O)[C@H](CCC(=O)O)NC(=O)[C@H](C)NC(=O)[C@@H](N)Cc1ccc(O)cc1)[C@@H](C)O)[C@@H](C)O)C(=O)N[C@@H](Cc1ccc(O)cc1)C(=O)N[C@@H](CC(C)C)C(=O)N[C@@H](CC(=O)O)C(=O)N[C@H]1CCC(=O)NCCCC[C@@H](C(=O)N[C@@H](CCC(=O)O)C(=O)N[C@@H](Cc2ccccc2)C(=O)N[C@H](C(=O)N[C@@H](CC(N)=O)C(=O)N[C@@H](Cc2c[nH]c3ccccc23)C(=O)N[C@@H](CC(C)C)C(=O)N[C@@H](CC(C)C)C(=O)N[C@@H](C)C(=O)NCC(=O)NCC(=O)N2CCC[C@H]2C(=O)N[C@@H](CO)C(=O)N[C@@H](CO)C(=O)NCC(=O)N[C@@H](C)C(=O)N2CCC[C@H]2C(=O)N2CCC[C@H]2C(=O)N2CCC[C@H]2C(=O)N[C@@H](CO)C(N)=O)C(C)C)NC(=O)[C@H](C)NC(=O)[C@H](C)NC(=O)[C@H](CCC(N)=O)NC1=O [mt-149] (H-YAEGTFTSDYSIYLDEQAAKEFVNWLLAGGPSSGAPPPS-NH2; lactam 16-20; N-terminus assumed)	exemplary GLP-1/GIP co-agonist peptides	91.18	0.64	97.53	0.036
CC[C@H](C)[C@H](NC(=O)[C@H](Cc1ccccc1)NC(=O)[C@H](CCC(=O)O)NC(=O)[C@@H]1CCCCNC(=O)CC[C@H](NC(=O)[C@H](CC(=O)O)NC(=O)[C@H](CC(C)C)NC(=O)[C@H](Cc2ccc(O)cc2)NC(=O)[C@H](CCCCN)NC(=O)[C@H](CO)NC(=O)[C@H](Cc2ccc(O)cc2)NC(=O)[C@H](CC(=O)O)NC(=O)[C@H](CO)NC(=O)[C@@H](NC(=O)[C@H](Cc2ccccc2)NC(=O)[C@@H](NC(=O)CNC(=O)[C@H](CCC(N)=O)NC(=O)[C@H](CO)NC(=O)[C@@H](N)Cc2ccc(O)cc2)[C@@H](C)O)[C@@H](C)O)C(=O)N[C@@H](CCC(N)=O)C(=O)N[C@@H](C)C(=O)N[C@@H](C)C(=O)N1)C(=O)N[C@@H](C)C(=O)N[C@@H](Cc1c[nH]c2ccccc12)C(=O)N[C@@H](CC(C)C)C(=O)N[C@@H](CC(C)C)C(=O)N[C@@H](C)C(=O)NCC(=O)NCC(=O)N1CCC[C@H]1C(=O)N[C@@H](CO)C(=O)N[C@@H](CO)C(=O)NCC(=O)N[C@@H](C)C(=O)N1CCC[C@H]1C(=O)N1CCC[C@H]1C(=O)N1CCC[C@H]1C(=O)N[C@@H](CO)C(N)=O [mt-151] (H-YSQGTFTSDYSKYLDEQAAKEFIAWLLAGGPSSGAPPPS-NH2; lactam 16-20; N-terminus assumed)	exemplary GLP-1/GIP/glucagon triagonist peptides	7.28	30.16	30.16	–
CC[C@H](C)[C@H](NC(=O)[C@H](CO)NC(=O)[C@H](Cc1ccc(O)cc1)NC(=O)[C@H](CC(=O)O)NC(=O)[C@H](CO)NC(=O)[C@@H](NC(=O)[C@H](Cc1ccccc1)NC(=O)[C@@H](NC(=O)CNC(=O)[C@H](CCC(N)=O)NC(=O)C(C)(C)NC(=O)[C@@H](N)Cc1ccc(O)cc1)[C@@H](C)O)[C@@H](C)O)C(=O)N[C@@H](Cc1ccc(O)cc1)C(=O)N[C@@H](CC(C)C)C(=O)N[C@@H](CC(=O)O)C(=O)N[C@H]1CCC(=O)NCCCC[C@@H](C(=O)N[C@@H](CCC(=O)O)C(=O)N[C@@H](Cc2ccccc2)C(=O)N[C@H](C(=O)N[C@@H](CC(N)=O)C(=O)N[C@@H](Cc2c[nH]c3ccccc23)C(=O)N[C@@H](CC(C)C)C(=O)N[C@@H](CC(C)C)C(=O)N[C@@H](C)C(=O)NCC(=O)NCC(=O)N2CCC[C@H]2C(=O)N[C@@H](CO)C(=O)N[C@@H](CO)C(=O)NCC(=O)N[C@@H](C)C(=O)N2CCC[C@H]2C(=O)N2CCC[C@H]2C(=O)N2CCC[C@H]2C(=O)N[C@@H](CO)C(N)=O)C(C)C)NC(=O)[C@H](C)NC(=O)[C@H](C)NC(=O)[C@H](CCC(N)=O)NC1=O [mt-152] (H-Y[Aib]QGTFTSDYSIYLDEQAAKEFVNWLLAGGPSSGAPPPS-NH2; lactam 16-20; N-terminus assumed)	exemplary GLP-1/GIP/glucagon triagonist peptides	41.19	36.52	168.75	–
